Measurements taken from US20250289789A1, “REVERSIBLE LYSINE COVALENT MODIFIERS OF CDK2 AND USES THEREOF” (Terremoto Biosciences, Inc., priority 2023, published 2025).
Like-named read-outs stand apart in the source and are kept apart here.

Columns and labels:
Type in all cases: cell-based
[1] = target: T1, CDK2-NanoLuc fusion with CCNE1 in 293T or 293 cells (Homo sapiens, UniProt P24941); assay: NanoBRET Target Engagement (TE) Intracellular Kinase Assay, CDK2/CCNE1; settings: NanoBRET TE intracellular kinase assay, 2-hour incubation, read-out: NanoBRET-CDK2/E1 IC50
T1 construct: host or cells: 293T (ATCC CRL-3216) or 293 (ATCC CRL-1573)
Experimental: (§1) Inhibitory effects of compounds were measured in NanoBRET TE Intracellular Kinase Assay. […] Cells were co-transfected with 1 μg/mL of CDK-NanoLuc Fusion Vector (Promega; NV2701 for CDK1, NV2781 for CDK2, NV2811 for CDK4, NV2841 for CDK6) and 1 μg/mL of the corresponding Cyclin Expression Vector (Promega; NV2601 for CCNB1, NV2641 for CCNE1, NV2621 for CCND1, NV2631 for CCND3) using FuGENE HD Transfection Reagent (Promega; E2311). […] 20 uL/well of 3× Intracellular TE Nano-Glo Substrate/Inhibitor (Promega; N2162) were added to 384-well plates and incubated for 3 minutes at room temperature. NanoBRET signals (donor emission wavelength at 450 nm, acceptor emission wavelength at 610 nm) were measured using Envision plate reader (PerkinElmer). NanoBRET ratio was calculated by: BRET Ratio=raw signal for acceptor/raw signal for donor. Dose response curve normalized to DMSO control was plotted using four-parameter logistic model for IC50 calculation.

[2] = system: Phospho-Rb Ser807/811 in OVCAR3 cells; assay: OVCAR3 Phospho-Rb Ser807/811 HTRF assay; settings: OVCAR3 cells, Phospho-Rb Ser807/811 HTRF, 1 hour incubation, read-out: pRb-OVCAR3 IC50
Experimental: Cells were trypsinized and resuspended in 1 mM hydroxyurea (Sigma; H8627), 90% RPMI and 10% fetal bovine serum. […] Dose response curve normalized to DMSO control was plotted using four-parameter logistic model for IC50 calculation.

[3] = target: T2, CDK4-NanoLuc fusion with CCND1 in 293T or 293 cells (Homo sapiens, UniProt P11802); assay: NanoBRET Target Engagement (TE) Intracellular Kinase Assay, CDK4/CCND1; settings: NanoBRET TE intracellular kinase assay, 2-hour incubation, read-out: NanoBRET-CDK4/D1 IC50
T2 construct: host or cells: 293T (ATCC CRL-3216) or 293 (ATCC CRL-1573)
Experimental: as §1

T2 sequence (P11802 whole entry, the tested form may be a part): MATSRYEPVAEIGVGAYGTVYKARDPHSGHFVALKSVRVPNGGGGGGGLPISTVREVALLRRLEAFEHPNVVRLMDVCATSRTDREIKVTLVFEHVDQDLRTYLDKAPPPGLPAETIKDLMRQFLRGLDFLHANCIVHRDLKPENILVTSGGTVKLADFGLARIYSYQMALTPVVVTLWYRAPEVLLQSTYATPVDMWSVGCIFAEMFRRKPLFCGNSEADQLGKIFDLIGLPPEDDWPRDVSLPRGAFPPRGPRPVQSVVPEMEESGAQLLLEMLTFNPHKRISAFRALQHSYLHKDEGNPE
T2 sequence (P24385 whole entry partner, the tested form may be a part): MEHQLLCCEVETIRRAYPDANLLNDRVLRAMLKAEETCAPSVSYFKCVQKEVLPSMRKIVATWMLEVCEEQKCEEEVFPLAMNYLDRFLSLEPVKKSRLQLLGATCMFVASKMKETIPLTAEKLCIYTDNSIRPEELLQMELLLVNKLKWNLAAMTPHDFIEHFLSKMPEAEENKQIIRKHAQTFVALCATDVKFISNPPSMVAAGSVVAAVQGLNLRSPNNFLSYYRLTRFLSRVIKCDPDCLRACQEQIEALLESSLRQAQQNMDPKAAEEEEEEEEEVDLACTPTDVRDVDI

In the case of COc1cc(O)c(C=O)c2c1CC(C(=O)Nc1cc([C@H]3CC[C@@H](OC(=O)N4CCCN4C)C3)[nH]n1)C2 (single isomer, unassigned) [Compound 262, (1R,3S)-3-(3-((*)-4-formyl-5-hydroxy-7-methoxy-2,3-dihydro-1H-indene-2-carboxamido)-1H-pyrazol-5-yl)cyclopentyl 2-methylpyrazolidine-1-carboxylate], the IC50 [1] is reported as 4.42 nM, the IC50 [2] is reported as 51.8 nM and the IC50 [3] is reported as 5080 nM.
COc1cc(O)c(C=O)c2c1CC(C(=O)Nc1cc([C@H]3CC[C@@H](OC(=O)N4CCCN4C)C3)[nH]n1)C2 (single isomer, unassigned) [Compound 263, (1R,3S)-3-(3-((*)-4-formyl-5-hydroxy-7-methoxy-2,3-dihydro-1H-indene-2-carboxamido)-1H-pyrazol-5-yl)cyclopentyl 2-methylpyrazolidine-1-carboxylate] was tested, and the IC50 [1] was 63.3 nM, the IC50 [2] was 7740 nM and the IC50 [3] was 735 nM.
Work on COc1cc(O)c(C=O)c2c1CC(C(=O)Nc1cc([C@H]3CC[C@@H](OC(=O)NN(C)CC(F)(F)F)C3)[nH]n1)C2 (single isomer, unassigned) [Compound 264, (1R,3S)-3-(3-((*)-4-formyl-5-hydroxy-7-methoxy-2,3-dihydro-1H-indene-2-carboxamido)-1H-pyrazol-5-yl)cyclopentyl 2-methyl-2-(2,2,2-trifluoroethyl)hydrazine-1-carboxylate] yielded an IC50 [1] of 5.95 nM, an IC50 [2] of 13.6 nM and an IC50 [3] of 512 nM.
COc1cc(O)c(C=O)c2c1CC(C(=O)Nc1cc([C@H]3CC[C@@H](OC(=O)NN(C)CC(F)(F)F)C3)[nH]n1)C2 (single isomer, unassigned) [Compound 265, (1R,3S)-3-(3-((*)-4-formyl-5-hydroxy-7-methoxy-2,3-dihydro-1H-indene-2-carboxamido)-1H-pyrazol-5-yl)cyclopentyl 2-methyl-2-(2,2,2-trifluoroethyl)hydrazine-1-carboxylate] gave an IC50 [1] of 15.5 nM, an IC50 [2] of 567 nM and an IC50 [3] of 132 nM.
With COc1cc(O)c(C=O)c2c1CC(C(=O)Nc1cc([C@H]3CC[C@@H](OC(=O)N4CCCCN4C)C3)[nH]n1)C2 (single isomer, unassigned) [Compound 266, (1R,3S)-3-(3-((*)-4-formyl-5-hydroxy-7-methoxy-2,3-dihydro-1H-indene-2-carboxamido)-1H-pyrazol-5-yl)cyclopentyl 2-methyltetrahydropyridazine-1(2H)-carboxylate] the IC50 [1] was 1.99 nM, the IC50 [2] was 123 nM and the IC50 [3] was 1980 nM.
In the case of COc1cc(O)c(C=O)c2c1CC(C(=O)Nc1cc([C@H]3CC[C@@H](OC(=O)N4CCCCN4C)C3)[nH]n1)C2 (single isomer, unassigned) [Compound 267, (1R,3S)-3-(3-((*)-4-formyl-5-hydroxy-7-methoxy-2,3-dihydro-1H-indene-2-carboxamido)-1H-pyrazol-5-yl)cyclopentyl 2-methyltetrahydropyridazine-1(2H)-carboxylate], the IC50 [1] is reported as 21.8 nM, the IC50 [2] is reported as 5230 nM and the IC50 [3] is reported as 266 nM.
COc1cc(O)c(C=O)c2c1CC(C(=O)Nc1cc([C@H]3CC[C@@H](OC(=O)NN(C)C)C3)n[nH]1)C2 (single isomer, unassigned) [Compound 268, (1R,3S)-3-(3-((*)-4-formyl-5-hydroxy-7-methoxy-2,3-dihydro-1H-indene-2-carboxamido)-1H-pyrazol-5-yl)cyclopentyl 2,2-dimethylhydrazine-1-carboxylate] gave an IC50 [1] of 10.8 nM, an IC50 [2] of 85.9 nM and an IC50 [3] of 4940 nM.
COc1cc(O)c(C=O)c2c1CC(C(=O)Nc1cc([C@H]3CC[C@@H](OC(=O)NN(C)C)C3)n[nH]1)C2 (single isomer, unassigned) [Compound 269, (1R,3S)-3-(3-((*)-4-formyl-5-hydroxy-7-methoxy-2,3-dihydro-1H-indene-2-carboxamido)-1H-pyrazol-5-yl)cyclopentyl 2,2-dimethylhydrazine-1-carboxylate] gave an IC50 [1] of 67.7 nM, an IC50 [2] of 2230 nM and an IC50 [3] of 459 nM.
COc1cc(O)c(C=O)c2c1CC(C(=O)Nc1cc([C@H]3C[C@@H](OC(=O)N(C)N(C)C)C3)n[nH]1)C2 (single isomer, unassigned) [Compound 270] was tested, and the IC50 [1] was 6.25 nM, the IC50 [2] was 48.6 nM and the IC50 [3] was > 10000 nM.
In the case of COc1cc(O)c(C=O)c2c1CC(C(=O)Nc1cc([C@H]3C[C@@H](OC(=O)N(C)N(C)C)C3)n[nH]1)C2 (single isomer, unassigned) [Compound 271], the IC50 [1] is reported as 240 nM, the IC50 [2] is reported as > 10000 nM and the IC50 [3] is reported as 3250 nM.
COc1cc(O)c(C=O)c(OCC(=O)Nc2cc([C@H]3CC[C@@H](OC(=O)NC4(C)CC4(F)F)C3)[nH]n2)c1 (single isomer, unassigned) [Compound 280, (1R,3S)-3-(3-(2-(2-formyl-3-hydroxy-5-methoxyphenoxy)acetamido)-1H-pyrazol-5-yl)cyclopentyl ((*)-2,2-difluoro-1-methylcyclopropyl)carbamate] was tested, and the IC50 [1] was 3.88 nM, the IC50 ([2]; Homo sapiens, OVCAR-3, 1 h) was 17.4 nM and the IC50 [3] was 576 nM.
COc1cc(O)c(C=O)c(OCC(=O)Nc2cc([C@H]3CC[C@@H](OC(=O)NC4(C)CC4(F)F)C3)[nH]n2)c1 (single isomer, unassigned) [Compound 281, (1R,3S)-3-(3-(2-(2-formyl-3-hydroxy-5-methoxyphenoxy)acetamido)-1H-pyrazol-5-yl)cyclopentyl ((*)-2,2-difluoro-1-methylcyclopropyl)carbamate] showed an IC50 [1] of 4.85 nM, an IC50 [2] of 27.3 nM and an IC50 [3] of 1200 nM.
COc1cc(O)c(C=O)c2c1CC(C(=O)Nc1cc([C@H]3C[C@@H](OC(=O)NC(C)C)C3)[nH]n1)C2 (single isomer, unassigned) [Compound 282, (1R,3s)-3-(3-((*)-4-formyl-5-hydroxy-7-methoxy-2,3-dihydro-1H-indene-2-carboxamido)-1H-pyrazol-5-yl)cyclobutyl isopropylcarbamate] gave an IC50 [1] of 5.3 nM, an IC50 ([2]; Homo sapiens, OVCAR-3, 1 h) of 20.4 nM and an IC50 [3] of 3350 nM.
Compound COc1cc(O)c(C=O)c2c1CC(C(=O)Nc1cc([C@H]3CC[C@@H](OC(=O)NC(C)(C)C)C3)[nH]n1)C2 (single isomer, unassigned) [Compound 283, (1R,3S)-3-(3-((*)-4-formyl-5-hydroxy-7-methoxy-2,3-dihydro-1H-indene-2-carboxamido)-1H-pyrazol-5-yl)cyclopentyl tert-butylcarbamate] has an IC50 [1] of 2.01 nM, an IC50 ([2]; Homo sapiens, OVCAR-3, 1 h) of 12.6 nM and an IC50 [3] of 236 nM.
For COc1cc(O)c(C=O)c2c1CC(C(=O)Nc1cc([C@H]3CC[C@@H](OC(=O)N(C)N(C)C)C3)n[nH]1)C2 (single isomer, unassigned) [Compound 284, (1R,3S)-3-(3-((*)-4-formyl-5-hydroxy-7-methoxy-2,3-dihydro-1H-indene-2-carboxamido)-1H-pyrazol-5-yl)cyclopentyl 1,2,2-trimethylhydrazine-1-carboxylate], the IC50 [1] was 1.85 nM, the IC50 ([2]; Homo sapiens, OVCAR-3, 1 h) was 29.2 nM and the IC50 [3] was 2850 nM.
With COc1cc(O)c(C=O)c(OCC(=O)Nc2cc([C@H]3CC[C@@H](OC(=O)N4CC[C@H]4C#N)C3)[nH]n2)c1 (stereo in doubt) [Compound 126] the IC50 [1] was 9.62 nM, the IC50 ([2]; Homo sapiens, OVCAR-3, 1 h) was 75.7 nM and the IC50 [3] was 7310 nM.
For CCOc1cc(O)c(C=O)c(OCC(=O)Nc2cc([C@H]3CC[C@@H](OC(=O)NC4(C)CC4)C3)[nH]n2)c1 [Compound 115], the IC50 [1] was 1.94 nM, the IC50 ([2]; Homo sapiens, OVCAR-3, 1 h) was 16.3 nM and the IC50 [3] was 1240 nM.
In the case of COc1cc(O)c(C=O)c(OCC(=O)Nc2cc([C@H]3CC[C@@H](OC(=O)NCCOC(F)F)C3)n[nH]2)c1 [Compound 116], the IC50 [1] is reported as 4.5 nM, the IC50 ([2]; Homo sapiens, OVCAR-3, 1 h) is reported as 32.3 nM and the IC50 [3] is reported as 4360 nM.
In the case of COc1cc(O)c(C=O)c(OCC(=O)Nc2cc([C@H]3CC[C@@H](OC(=O)NCCOC(F)(F)F)C3)n[nH]2)c1 [Compound 117], the IC50 [1] is reported as 2.19 nM, the IC50 ([2]; Homo sapiens, OVCAR-3, 1 h) is reported as 22 nM and the IC50 [3] is reported as 8090 nM.
In the case of COc1cc(O)c(C=O)c(OCC(=O)Nc2cc([C@H]3CC[C@@H](OC(=O)N4C[C@H]5C[C@@H]4CS5(=O)=O)C3)n[nH]2)c1 [Compound 118], the IC50 [1] is reported as 55.4 nM, the IC50 ([2]; Homo sapiens, OVCAR-3, 1 h) is reported as 101 nM and the IC50 [3] is reported as 6480 nM.
In the case of COc1cc(O)c(C=O)c(OCC(=O)Nc2cc([C@H]3CC[C@@H](OC(=O)N[C@H](C)CC(F)F)C3)[nH]n2)c1 [Compound 119], the IC50 [1] is reported as 2.31 nM, the IC50 ([2]; Homo sapiens, OVCAR-3, 1 h) is reported as 26.4 nM and the IC50 [3] is reported as 7860 nM.
For COc1cc(O)c(C=O)c(OCC(=O)Nc2cc([C@H]3CC[C@@H](OC(=O)N[C@@H](C)CF)C3)[nH]n2)c1 [Compound 120], the IC50 [1] was 2.64 nM, the IC50 ([2]; Homo sapiens, OVCAR-3, 1 h) was 13.4 nM and the IC50 [3] was 2970 nM.
In the case of COc1cc(O)c(C=O)c(OCC(=O)Nc2cc([C@H]3CC[C@@H](OC(=O)N(C)CC(F)F)C3)[nH]n2)c1 [Compound 121], the IC50 [1] is reported as 1.99 nM, the IC50 ([2]; Homo sapiens, OVCAR-3, 1 h) is reported as 18.5 nM and the IC50 [3] is reported as 2440 nM.
In the case of COc1cc(O)c(C=O)c(OCC(=O)Nc2cc([C@H]3CC[C@@H](OC(=O)N4C[C@H](F)[C@@H]4C)C3)[nH]n2)c1 [Compound 122], the IC50 [1] is reported as 1.99 nM, the IC50 ([2]; Homo sapiens, OVCAR-3, 1 h) is reported as 20.9 nM and the IC50 [3] is reported as 1310 nM.
